# Measured values reported in PubChem BioAssay (NCI).
# Values joined by “and” are separate entries in the source; they are usually repeats but may differ in a detail not shown here. Equal values may be shown once.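 Each compound was tested at five concentrations against cells in 96-well plates for 48 hours. GI50 marks 50% less growth. TGI denotes the concentration required for complete inhibition of growth.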
# How the values were obtained:
# Assay in all cases: growth of human tumour cells (NCI), 48 h
# 786-0 renal = system: 786-0 renal
# HCT-15 colon = system: HCT-15 colon
# CAKI-1 renal = system: CAKI-1 renal
# SW-620 colon = system: SW-620 colon
# K-562 leukemia = system: K-562 leukemia
# HCT-116 colon = system: HCT-116 colon
# NCI-H460 lung = system: NCI-H460 lung
# SK-MEL-2 melanoma = system: SK-MEL-2 melanoma
# SR leukemia = system: SR leukemia
# MDA-MB-231 breast = system: MDA-MB-231 breast
Compound,TGI (786-0 renal),TGI (HCT-15 colon),TGI (CAKI-1 renal),TGI (SW-620 colon),TGI (K-562 leukemia),TGI (HCT-116 colon),TGI (NCI-H460 lung),TGI (SK-MEL-2 melanoma),TGI (SR leukemia) [µM],GI50 (786-0 renal) [µM],GI50 (HCT-15 colon) [µM],GI50 (CAKI-1 renal) [µM],GI50 (SW-620 colon) [µM],GI50 (K-562 leukemia) [µM],GI50 (HCT-116 colon) [µM],GI50 (SR leukemia) [µM],GI50 (NCI-H460 lung) [µM],GI50 (SK-MEL-2 melanoma) [µM],GI50 (MDA-MB-231 breast) [µM],TGI (MDA-MB-231 breast) [µM]
NC(=S)N1N=C2CCCCCC[C@@H]2[C@H]1c1ccccc1,> 100 µM,> 100 µM,> 100 µM,> 100 µM,> 100 µM,> 100 µM,> 100 µM,> 100 µM,,,,,,,,,,,,
O=C1CCCCCCC2=C1C(Sc1ccccc1)CC2 (configuration not stated),33 µM,> 100 µM,,> 100 µM,> 100 µM,67.8 µM,> 100 µM,,79.3,,,,,,,,,,,
CCC[CH2][Sn](=[O])[CH2]CCC,> 50 µM,> 50 µM,> 50 µM,> 50 µM,> 50 µM,> 50 µM,> 50 µM,> 50 µM,> 50,> 50,> 50,> 35.1,> 50,> 50,> 50,> 50,> 50,> 50,,
CC(C)(C)C1=CC(=N/N=c2\scc(-c3ccccc3)n2-c2ccccc2)C=C(C(C)(C)C)C1=O,> 100 µM,> 100 µM,> 100 µM,> 100 µM,> 100 µM,> 100 µM,> 100 µM,> 100 µM,> 100,,,,,,,,,,,
COc1ccc2c(c1)c(-c1nc(-c3cn(C)c4ccncc34)cs1)cn2C,3.15 µM,3.33 µM,3.26 µM,3.73 µM,4.2 µM,,3.68 µM,3.28 µM,,1.6,1.54,1.8,1.96,1.9,,,1.94,1.76,1.83,3.53
CC(=O)OCc1c(O)c2c([nH]c1=O)CCc1ccccc1-2,115 µM,112 µM,130 µM,111 µM,> 350 µM,110 µM,283 µM,> 35 µM,> 350,,,,,,,,,,,
CCN(CC)CCN(CC)CC.CCN(CC)CCN(CC)CC.[Cu+2].[Cu+2].[O-][Cl+3]([O-])([O-])[O-].[OH3+].[OH3+],> 100 µM,,> 100 µM,> 100 µM,> 100 µM,> 100 µM,37.6 µM,,> 100,46,,> 100,> 100,53.1,40.2,> 100,15.5,,,
COc1ccc(NC(=O)Oc2ccc3c(C)cc(=O)oc3c2)c(OC)c1 (tested in a mixture with another compound),> 100 µM,> 100 µM,> 100 µM,> 100 µM,,> 100 µM,> 100 µM,> 100 µM,,,,,,,,,,,,> 100
CCOC(=O)C1(C(=O)OCC)C(C(C)(C)C)=C(C)c2ccccc21,29.7 µM,28.7 µM,,28.8 µM,53.5 µM,20.2 µM,26.3 µM,37.6 µM,> 100,,,,,,,,,,,
CCOC(=O)c1[nH]c2cc(Cl)ccc2c1[C@@H](C(=O)NC(C)(C)C)N(CC)C(=O)CCCCC#Cc1cccc2c1CN(C1CCC(=O)NC1=O)C2=O (some centres not stated),8.63 µM,> 33.2 µM,8.62 µM,> 100 µM,> 100 µM,18.5 µM,> 54.3 µM,4.15 µM,,0.249,0.048,0.0355,< 0.01,1.52,2.55,,3.11,1.47,< 0.01,1.68
O=C(C[n+]1ccccc1)N/N=C(/CCC(=O)N(Cc1ccccc1)Cc1ccccc1)CC(=O)c1ccccc1,> 100 µM,> 100 µM,> 100 µM,> 100 µM,> 100 µM,> 100 µM,> 100 µM,> 100 µM,> 100,,,,,,,,,,,
CC(=O)OC12C(C)=C(C)C(=O)N1c1ccccc1N2C(C)=O (configuration not stated),> 100 µM,> 100 µM,> 100 µM,> 100 µM,> 100 µM,> 100 µM,> 100 µM,> 100 µM,> 100,,,,,,,,,,,
CSc1ccc(C2=NN(C(C)=O)C(c3ccc(-c4cc(Cl)c(Cl)cc4Cl)o3)C2)cc1 (configuration not stated),32.9 µM,28 µM,43.2 µM,33.2 µM,34.2 µM,21.9 µM,32.2 µM,35.1 µM,,18.9,14.8,19.2,18.5,14.8,10.3,,17.2,16.8,11.3,23.3
CC(=O)O.CN1[CH-]N(Cc2ccc(C#N)cc2)c2ccccc21.[Ag+],36.7 µM,38 µM,33.9 µM,31 µM,46 µM,42.4 µM,> 100 µM,> 100 µM,,18.4,18,18.2,15.3,18,18.5,,> 100,> 100,18.2,36
CN(C)c1ccc(/C=c2\sc3nnc(-c4ccco4)n3c2=O)cc1,> 100 µM,,> 100 µM,> 100 µM,> 100 µM,> 100 µM,> 100 µM,> 100 µM,,,,,,,,,,,,
O=C1c2ccccc2-c2c3c(cc4ccnc1c24)OCO3,27.2 µM and > 100 µM,68.3 µM and > 100 µM,28.1 µM and 15.5 µM,23.4 µM and > 100 µM,> 100 µM and 15 µM,33.3 µM and 33.6 µM,19.6 µM and 16.4 µM,19.3 µM and 28.5 µM,,,,,,,,,,,,
COc1ccc(/C=C/c2cc(OC)c(OC(C)=O)c(OC)c2)cc1,> 100 µM,80.6 µM,,,,> 100 µM,60.4 µM,> 100 µM,,,,,,,,,,,,
COc1ccccc1C#Cc1ccccc1C#Cc1ccc(OCCCCCCOc2ccccc2C#Cc2ccccc2C#Cc2ccccc2OC)cc1,> 100 µM,> 100 µM,> 100 µM,> 100 µM,> 100 µM,> 100 µM,> 100 µM,> 100 µM,,> 100,> 100,> 100,> 100,> 100,> 100,,> 100,> 100,> 100,> 100
